Laboratory results taken from US5230998A, “Method for the prescreening of drugs targeted to the V3 hypervariable loop of the HIV-1 envelope glycoprotein gp 120” (priority 1991, dated 1993).

How the values were obtained:
[1] = test system: HIV-1 isolates IIIB, MN, SF2 and RF; test: Antiviral activity of porphyrin derivatives for distinct HIV-1 isolates in promonocytic U937 cells (FIG. 12A); type: cell-based
Description: (§1) FIG. 12A and FIG. 12B are graphs depicting antiviral activity of selected porphyrin derivatives for distinct HIV-1 isolates in T-lymphocytic (MT-2) (FIG. 12B) and a promonocytic (U937) (FIG. 12A) cell lines. […] Therefore, the antiviral activity against HIV-1 RF could not be tested in this cell line. Note that the higher the value of EC50, the less efficient is the drug for inhibiting HIV-1 replication.
(§2) Four of the porphyrin derivatives (see FIG. 12) were tested for their inhibiting activity and the replication of four distinct HIV-1 isolates: IIIB, MN, SF2 and RF in two different cell lines, U937 and MT-2.

[2] = test system: V3 hypervariable loop peptides from gp120 from 21 distinct HIV-1 isolates (clones); test: Inhibition of the reaction of V3 hypervariable loop peptides from 21 HIV-1 isolates with homologous anti-peptide antisera; type: binding; conditions: 21 HIV-1 isolates (clones); antisera 1:1,000; FIG. 7A, 7B
Excerpt: FIGS. 7A and 7B are bar graphs depicting the inhibitory effect of deuteroporphyrin IX,2,4 (4,2) hydroxyethylvinyl (FIG. 7A) and of meso-tetra(4-carboxyphenyl)porphine (FIG. 7B) on the reaction of full-length V3 hypervariable loop peptides from gp120 from 21 distinct HIV-1 isolates (clones) with homologous anti-peptide antisera. Peptide coated wells of polystyrene plates were reacted in the presence and absence of the inhibitory compounds with the respective rabbit antisera diluted 1:1,000, and the attachment of rabbit IgG was subsequently determined using ^125 I-labeled anti-rabbit IgG. […]
(§3) To define sites on gp120/gp41 reacting with ATA, the inhibitory effect of this compound was studied by RIA tests using gp120- and gp160-coated wells, respectively, and antisera (final dilutions 1:150) against synthetic peptides from the entire sequence of gp120/gp41 of HIV-1 BH 10. […] Attached rabbit IgG was detected using ^125 I-labeled anti-rabbit IgG, as described before (Neurath et al., 1990, J. Gen. Virol., 71, 85-95). […]
(§4) The inhibitory effect of ATA and of other compounds on the reaction between antibodies with predetermined specificity and gp120 (or synthetic peptides derived from it) was determined from the formula: [formula] An analogous formula was used to calculate the percentage of inhibition from optical density readings resulting from ELISA tests.

[3] = test system: HIV-1 isolates IIIB, MN, SF2 and RF; test: Antiviral activity of porphyrin derivatives for distinct HIV-1 isolates in T-lymphocytic MT-2 cells (FIG. 12B); type: cell-based
Description: as §1, §2

V3 peptide from HIV-1 SC = target: T1, V3 peptide from HIV-1 SC (Human immunodeficiency virus type 1 (SC ISOLATE), UniProt P05878); test: Inhibition of the reaction of antibodies with the V3 peptide from HIV-1 SC (FIG. 7B); type: binding; conditions: as compared with HXB-2 and HXB-3 V3 peptides
T1 construct: cut from Env gp160
Excerpt: FIGS. 7A and 7B are bar graphs depicting the inhibitory effect of deuteroporphyrin IX,2,4 (4,2) hydroxyethylvinyl (FIG. 7A) and of meso-tetra(4-carboxyphenyl)porphine (FIG. 7B) on the reaction of full-length V3 hypervariable loop peptides from gp120 from 21 distinct HIV-1 isolates (clones) with homologous anti-peptide antisera. Peptide coated wells of polystyrene plates were reacted in the presence and absence of the inhibitory compounds with the respective rabbit antisera diluted 1:1,000, and the attachment of rabbit IgG was subsequently determined using ^125 I-labeled anti-rabbit IgG.
as §3, §4

[4] = test system: gp120 V3 hypervariable loop; test: Binding of gp120 to monoclonal antibodies specific for the V3 hypervariable loop in the absence of other proteins; parameters: species or system HIV-1; conditions: 20-fold excess over gp120, absence of other proteins
Excerpt: The inhibitory effect of dextran sulfate on gp120-antibody binding under these conditions was confirmed. The apparently contradictory results concerning binding of dextran sulfate to gp120 obtained by different methods can probably be explained by differences in equilibrium constants defining the binding reaction of gp120 with ATA and dextran sulfate, respectively. […] The relatively weak binding of dextran sulfate to the V3 hypervariable loop may contribute to the ineffectiveness of this substance in inhibiting HIV-1 replication in vivo (Mitsuya et al., (1990), Science, 249, 1533-1544).

[5] = test system: gp120 expressed on the surface of HIV-1-infected cells; conditions: literature; cited from earlier work
HIV-1 = conditions: literature; cited from earlier work
[6] = test system: gp120 V3 hypervariable loop; conditions: 20-fold excess over gp120, absence of other proteins; cited from earlier work
[7] = target: T2, HIV-1 gp120 V3 hypervariable loop (Human immunodeficiency virus type 1 group M subtype B, UniProt P03375); test: biochemical; type: binding; conditions: excess of serum proteins in medium
T2 construct: Polystyrene plates coated with recombinant gp120 and gp160, respectively; purchased American Bio-Technologies, Inc., Cambridge, Mass; host or cells: baculovirus expression system
Description: Wells of 96 well polystyrene plates (Immulon 2, Dynatech Laboratories, Inc., Chantilly, Va.) were coated with synthetic peptides (200 μl; 20μg/ml in 0.1 M Tris-HCl, pH 8.8) overnight at 20° C. The peptides were from the sequence of HIV-1, clone BH 10 envelope glycoproteins gp120 and gp41 (Neurath, A. R., Strick, N., and Lee, E. Y. S. (1990), "B-cell Epitope Mapping of Human Immunodeficiency virus (HIV-1) Envelope Glycoprotein with Long (19 to 36-residue) Synthetic Peptides", J. Gen. Virol., 71., 85-95) and from V3 hypervariable loops of 21 distinct HIV-1 isolates (clones) Neurath, A. R., and Strick, N., (1990), "Confronting the Hypervariability of an Immunodominant Epitope Eliciting Virus Neutralizing Antibodies from the Envelope Glycoprotein of the Human Immunodeficiency Virus Type 1 (HIV-1)", Molec. Immunol., 27, 539-549. The latter peptides corresponded to full-length V3 loops generated by disulfide bonds between N- and C- terminal cysteine residues. After washing with 0.14 M NaCl, 0.01 M Tris, 0.02% NaN3 (TS), the wells were postcoated with a mixture of bovine serum albumin (BSA) and gelatine (10 and 2.5 mg/ml, respectively) in TS. BSA was omitted from the postcoating solution for RIA tests in which antibodies to ATA were used. Polystyrene plates coated with recombinant gp120 and gp160, respectively, (500 ng/well; from American Bio-Technologies, Inc., Cambridge, Mass. and MicroGeneSys, Inc., West Haven, Conn., respectively) were also used for RIA and ELISA tests.
To define sites on gp120/gp41 reacting with ATA, the inhibitory effect of this compound was studied by RIA tests using gp120- and gp160-coated wells, respectively, and antisera (final dilutions 1:150) against synthetic peptides from the entire sequence of gp120/gp41 of HIV-1 BH 10. The preparation and biological properties of these antisera were described elsewhere (Neurath et al., (1990), J. Gen. Virol., 71, 85-95). Each of the antisera was diluted in a mixture of fetal bovine serum and goat serum (9:1) containing 0.1% Tween 20, adjusted to pH 8. ATA (final concentration 50 μg/ml) was added in one set of assays, but was omitted from a parallel set. After incubation overnight at 25° C., the plates were washed with TS. Attached rabbit IgG was detected using ^125 I-labeled anti-rabbit IgG, as described before (Neurath et al., 1990, J. Gen. Virol., 71, 85-95). Similarly, the inhibitory effect of ATA on the reaction of peptides derived from gp120/gp41 and of peptides derived from V3 hypervariable loops from gp120 of distinct HIV-1 isolates with the respective homologous anti-peptide antisera was studied. In the latter case, antisera were diluted 1:1,000 for the assays.
as §4
Chemicals other than ATA were screened for inhibitory activity essentially as described above. […] Chemicals with inhibitory activity established by the respective immunoassays were screened further for antiviral activity.
Commercially available ATA is a mixture of monomers and polymers of distinct molecular masses (Gonzalez et al., (1979) Biochem. Biophys. Acta, 562, 534-545); Cushman et al., (1991), J. Chem., 34, 329-337). The monomers [molecular mass (M.W.)=422.4 daltons] were separated from the polymers. ATA (20 mg/ml in the form of free acid neutralized with 0.4 M NaOH) was dialyzed against H2 O in a dialysis membrane with a molecular mass cutoff of 500 daltons.

T1 sequence (P05878 296-330): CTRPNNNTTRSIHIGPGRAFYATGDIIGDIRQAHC

Row | Molecule | inhibition of HIV-1 replication in U937 cells [1] | inhibition of interaction between V3 hypervariable loop peptides and homologous antibodies [2] | inhibition of HIV-1 replication in MT-2 cells [3] | inhibitory activity on the reaction of antibodies with the V3 peptide (V3 peptide from HIV-1 SC) | inhibitory effect on gp120-antibody binding [4] | inhibition of the reaction of gp120 on infected cells with monoclonal anti-gp120 antibodies [5] | inhibition of HIV-1 replication in vivo (HIV-1) | blocking of binding of gp120 to monoclonal antibodies [6] | reaction with the V3 hypervariable loop as determined by RIA (ELISA) tests [7]
1 | O=C(O)c1ccc(-c2c3nc(c(-c4ccc(C(=O)O)cc4)c4ccc([nH]4)c(-c4ccc(C(=O)O)cc4)c4nc(c(-c5ccc(C(=O)O)cc5)c5ccc2[nH]5)C=C4)C=C3)cc1 [substance #160, meso-tetra (4-carboxyphenyl) porphine] | most effective agent with broad specificity | inhibited the interaction between V hypervariable loop peptides and homologous antibodies corresponding to all 21 HIV-1 isolates (clones) tested | most effective agent with broad specificity | relatively low inhibitory activity | – | – | – | – | –
2 | deuteroporphyrin IX, 2,4 (4,2) hydroxy-ethyl vinyl [substance #151] | – | inhibited the interaction between V hypervariable loop peptides and homologous antibodies corresponding to all 21 HIV-1 isolates (clones) tested | – | – | – | – | – | – | –
3 | dextran sulfate | – | – | – | – | confirmed | inhibit the reaction of gp120 expressed on the surface of HIV-1-infected cells with monoclonal anti-gp120 antibodies | ineffectiveness | blocked | did not react with the V3 hypervariable loop
